How the values were obtained:
[1] = Field dicamba volatility, airborne dicamba collected by air samplers (Example 34); assay type: physicochemical; settings: field plot, 0.5 lb/acre dicamba a.e. with ROUNDUP WEATHERMAX, airborne dicamba collected over 24 hours, maximum 86° F.
[2] = In vitro dicamba photo-release from photo-labile dicamba esters, acetonitrile/10% water solvent (Example 27); assay type: physicochemical; settings: acetonitrile containing 10% water
Method: This Example describes in vitro testing of dicamba photo-release by homogeneous solutions of photo-labile dicamba esters. The esters were dissolved in tetrahydrofuran (THF). Ester concentration was 0.1 mM. 25 ml of the solution was transferred to 22 mm tubes fabricated from graded seal quartz tubing with a 19/22 tapered seal at the top, which was closed with a tapered glass plug and secured with a plastic ring clamp. The solution was entirely below the quartz-to-glass transition, ensuring that the entire volume was exposed to the full spectrum.
The sealed tubes were placed in a Growth Chamber where they were exposed to simulated sunlight for 14 hours per day at 35° C. Dicamba concentrations in the solution were measured during the course of the photolysis.
A sample of the initial solution was reserved in a glass vial away from the light source and analyzed at the conclusion of the study, providing a measurement of the amount of dicamba present without illumination of the photolysis solution (the “dark control”).
This Example is another photolysis of photo-labile dicamba esters, but using acetonitrile containing 10% water by weight as the solvent. The experimental protocol is otherwise the same as in Example 18.

velvetleaf = assay: Greenhouse post-emergent control of velvetleaf by emulsifiable concentrates (Example 30); assay type: in vivo
Method: The efficacy of some photo-labile ester formulations from Example 28 for post-emergent control of velvetleaf was tested in the greenhouse. All formulations were tested at rates of 140, 280, 420, and 560 g dicamba equivalent per hectare rates and compared to the diglycolamine salt of dicamba (CLARITY®) at the same rates and untreated control plants. The velvetleaf plants were 10-15 cm in height at the time of spraying. Percent control was evaluated three weeks after treatment.
The methodology of Example 29 was used to evaluate the efficacy of several photo-labile esters of dicamba for post-emergent control of velvetleaf as emulsifiable concentrate formulations described in Example 28.

Palmer amaranth = assay: Extended pre-emergent control of Palmer amaranth; assay type: in vivo; settings: emulsifiable concentrate, 21 and 44 days after treatment

## COc1c(Cl)ccc(Cl)c1C(=O)OCc1ccccc1[N+](=O)[O-] [Ester 1a, 2-Nitrobenzyl Ester of Dicamba]
[1]
  average dicamba level from the five air samplers: 1.2 ng/m^3

## COc1c(Cl)ccc(Cl)c1C(=O)OCCc1ccccc1[N+](=O)[O-] [Ester 2, 2-Nitrophenethyl Ester of Dicamba]
[2]; no illumination
  Dark Control % dicamba: 0%
[2]; simulated sunlight, 1 day
  Conversion to dicamba, 1 day: 33%
[2]; simulated sunlight, 2 days
  Conversion to dicamba, 2 days: 56%
[2]; simulated sunlight, 3 days
  Conversion to dicamba, 3 days: 75%
[2]; simulated sunlight, 5 days
  Conversion to dicamba, 5 days: 93%
[2]; simulated sunlight, 7 days
  Conversion to dicamba, 7 days: 104%
[2]; simulated sunlight, 11 days
  Conversion to dicamba, 11 days: 107%
[2]; simulated sunlight, 13 days
  Conversion to dicamba, 13 days: 108%
[2]; simulated sunlight, 15 days
  Conversion to dicamba, 15 days: 96%
[2]; simulated sunlight, 19 days
  Conversion to dicamba, 19 days: 106%

## COc1c(Cl)ccc(Cl)c1C(=O)Oc1cnc2ccccc2n1 [Ester 13a, 2-quinoxalinol ester of dicamba]
velvetleaf; 140 g/ha
  % Control of velvetleaf, 140 g/ha: 44%
velvetleaf; 280 g/ha
  % Control of velvetleaf, 280 g/ha: 69%
velvetleaf; 420 g/ha
  % Control of velvetleaf, 420 g/ha: 70%
velvetleaf; 560 g/ha
  % Control of velvetleaf, 560 g/ha: 83%
Palmer amaranth
  extended pre-emergent control of Palmer amaranth compared with the diglycolamine salt of dicamba, in words: superior extended pre-emergent control

Reference: US20170029355A1, “LABILE ESTERS OF AGROCHEMICALS FOR CONTROLLED RELEASE AND REDUCTION OF OFF-SITE MOVEMENT” (Monsanto Technology LLC, priority 2011, published 2017)
